# Patent EP0180416A2, “Benzoic acid analogues and their production” (Takeda Chemical Industries, Ltd., priority 1984, dated 1986)
# Counter-ions that a name gives are not always drawn.
# Tests used:
# [1] = test system: synthetic leukotriene D4 (LTD4); experiment: Bronchoconstriction due to LTD4 in guinea pigs (Konzett-Rossler method); format: in vivo, Guinea pigs of Hartley strain; conditions: Cavia porcellus, 1 h; 50% inhibitory dose; oral, one hour before LTD4 (10 ug/kg i.v.); inhibition of overflow volume at maximal response; anesthetized guinea pigs; read-out: ID50(p.o.)
# Description: Guinea pigs of Hartley strain, both male and female, with body weights about 400 g were assigned to groups of 6 to 10 individuals, and the bronchoconstriction due to LTD4 was measured according to the method of Konzett-Rossler [Konzett, H. and ROssler, R.: Naunyn-Schmiedebergs Archiv far Experimentelle Pathologie und Pharmakologie 195, 71-74 (1940)]. Each guinea pig was fixed in a supine position under urethane anesthesia (1.5 g/kg, intraperitoneal) and the trachea was incised and connected to an artificial respiration apparatus, Rodent Respirator Model 680 [Harvard Apparatus Company, U.S.A.] via a cannula. The branch tube of this tracheal cannula was connected to a Bronchospasm Transducer Model 7020 [Ugobasil Biological Researach Apparatus, Italy]. Under the conditions of 4 to 7 ml of air per stroke, 70 strokes per minute and a lung loading pressure of 10 cm H2O, the volume of overflowing air was recorded on a Rectigraph-8S (Sanei Sokki Ltd., Japan) via a transducer. After administration of gallamine·triethiodide (1 mg/kg, i.v.), a solution of LTD4 in physiological saline (10 ug/kg) was intravenously administered and the bronchoconstriction elicited thereby was recorded for 15 minutes. The compound was used as suspended in a 5% solution of gum arabic or dissolved in water, and administered orally in a volume of 0.2 ml per 100 g body weight one hour before LTD4 loading. LTD4 was administered through a cannula inserted into the jugular vein. LTD4 was used as dissolved in physiological saline, which was taken from a stock stored in methanol (1 mg/l mℓ methanol) at -70°C.
# mice = experiment: Acute toxicity in mice; format: in vivo, mice of Jcl:ICR strain; conditions: 2000 mg/kg, male mice; for symptoms after oral administration (acute toxicity): suspended in 5% gum arabic; for autopsy findings: oral, autopsy after 7 days
# Description: Five 5-week-old male mice of Jcl:ICR strain, weighing about 30 g each, were used. Compound (I)-2 or (I)-4 was suspended in a 5% solution of gum arabic and administered orally at the level of 0.2 ml per 10 grams body weight.
Structure (SMILES),ED50 [1] [µmol/kg],symptoms after oral administration (acute toxicity) (mice),autopsy findings (mice)
"CCCc1c(OCCCOc2ccc(C(=O)OCCN(C)C)cc2Br)ccc(C(C)=O)c1O [(I)-1, 2-(N,N-dimethylamino)ethyl 4-[3-(4-acetyl-3-hydroxy-2-propylphenoxy)propoxy]-3-bromobenzoate·hydrochloride·monohydrate]",49,–,–
"CCCc1c(OCCCOc2ccc(C(=O)OCCN3CCOCC3)cc2Br)ccc(C(C)=O)c1O [(I)-2, 2-morpholinoethyl 4-[3-(4-acetyl-3-hydroxy-2-propylphenoxy)propoxy]-3-bromobenzoate]",41,no symptoms,did not reveal any abnormalities
"CCCc1c(OCCCOc2ccc(C(=O)OCCN3CCN(C)CC3)cc2Br)ccc(C(C)=O)c1O [(I)-3, 2-(4-methyl-l-piperazinyl)ethyl 4-[3-(4-acetyl-3-hydroxy-2-propylphenoxy)propoxy]-3-bromobenzoate· dihydrochloride·monohydrate]",49,–,–
"CCCc1c(OCCCOc2ccc(C(=O)OCCCN(C)C)cc2Br)ccc(C(C)=O)c1O [(I)-4, 3-(N,N-dimethylamino)propyl 4-[3-(4-acetyl-3-hydroxy-2-propylphenoxy)propoxy]-3-bromobenzoate]",52,no symptoms,did not reveal any abnormalities
"CCCc1c(OCCCOc2ccc(C(=O)O)cc2Br)ccc(C(C)=O)c1O [Control compound (A), 4-[3-(4-acetyl-3-hydroxy-2-propylphenoxy)propoxy]-3-bromobenzoic acid, reference compound]",146,–,–
